Assay results published in patent publication US11534457B2, “Use of dextran sulfate” (priority 2017, dated 2022).
“Also recorded” adds a separate entry of the source.

How the values were obtained:
[1] = test system: Experimental Autoimmune Encephalomyelitis (EAE); experiment: Mouse Experimental Autoimmune Encephalomyelitis (EAE) model, clinical score; assay type: in vivo, C57B1.6 mice; conditions: 10 mg/kg s.c. three times weekly from day 0; day 13, 14, 16, 17, 19, 21 and 26
[2] = test system: Mouse motor neurons (Aruna); experiment: Gene expression array and pathway analysis, motor neurons; assay type: cell-based
Method: For each cell line, n=8×25 cm^2 culture flasks were set up. Two flasks were harvested for each cell type on the day of treatment (24 hours after seeding). This represents the Day0 time point. From the remaining flasks, three flasks were treated with Control Medium and three were treated with Culture Medium (CM) containing LMW-DS to give a final concentration of 0.01 mg/ml. Cells from the treated flasks were collected after 48 hours. Therefore the collected data represent (a) untreated cells (Day0 Controls and Day2 Controls) and (b) cells treated with LMW-DS for 48 hours (Day2 LMW-DS treated).
25 cm^2 flasks were coated by adding 2 ml per flask of a solution of 50 μg/ml poly-d-lysine in Hank's balanced salt solution (HBSS) and incubating overnight at 37° C. in the dark. Flasks were washed with cell culture water and air-dried for 30 min in the dark. Flasks were coated by adding 1 ml per flask of a solution of 25 μg/ml laminin in phosphate-buffered saline (PBS) and incubating for 2 hour at 37° C. in the dark. The laminin flasks were washed with PBS three times before plating cells.
The culture medium was prepared according to Table 5.
Medium (see Table 5) was pre-warmed to 37° C. Cells were thawed in a 37° C. water bath for no longer than 2 min. 9 ml of media was gently added drop-wise. The cell suspension was mixed by inverting the tube carefully twice. The cells were counted with a Cellometer. The cells were centrifuged for 5 minutes at 200×g. Supernatant was removed (to the last 0.5 ml) and cells were gently resuspended by trituration. The cells from the 8 vials were mixed and distributed equally into the previously coated 25 cm^2 flasks (n=8). Cells were incubated at 37° C. with 5% CO2 for 24 hours before treatment.
LMW-DS was provided at a stock concentration of 20 mg/ml and was kept in a temperature monitored refrigerator at 4° C. A fresh […]LMW-DS stock (1.0 mg/ml) was prepared in sterile DMEM-F12. The concentrated drug stock was sterile filtered and added to the respective culture media (19.6 ml CM and 0.4 ml LMW-DS stock solution). The Control was made using 19.6 ml CM and 0.4 ml of DMEM-F12. LMW-DS and CM were added to the respective flasks (5 ml each) to reach the 0.01 mg/ml concentration of LMW-DS in each dish with a total of 10 ml CM each.
CM was aspirated into a clean and labelled 15 ml Falcon tube. The flasks (without culture medium) were placed into the −80° C. freezer for 30 minutes. The CM in the Falcon tubes were spun at 3000×g for 5 minutes. Supernatant was removed and the small pellet was re-suspended in 2.5 ml Trizol:Water (4:1) solution at room temperature (RT, […]).
Two aliquots of 1 ml lysate was removed from each sample and 200 μl of chloroform was added to each (0.2 ml of chloroform per 1 ml of TRIzol Reagent used during the cell lysis step) and the tube was shaken vigorously. Samples were stored at RT for 2-3 minutes and subsequently centrifuged at 12,000×g for 15 minutes at 4° C.
The expression data were downloaded into separate files for each cell line. The ‘Background corrected’ expression is the data from the “gProcessedSignal” of the arrays that is the result of the background signal extracted from the actual signal of the relevant probe. This is the most often used variable in array analysis. The background corrected signal was log 2 transformed for all samples for statistical analysis. To reduce the false discovery rate in the samples, the signals that were below ‘expression level’ were removed. The ‘below expression’ level was set at 5 for the log 2 transformed expression values.
Based on the expression pattern of the Control probes on each array it was decided to carry out Median Centering for all arrays before analysis to reduce the variability of the results. […]

Substance: low molecular weight dextran sulfate [LMW-DS]
- mean EAE score vs vehicle control [1]: significantly (#) lower mean score; also recorded: significantly lower mean score
- HtrA2 ([2]; 0.01 mg/ml, 48 h): inhibition
- amyloid-β production ([2]; 0.01 mg/ml, 48 h): preventing amyloid-β production
- apoptosis pathway (F in FIG. 18) ([2]; 0.01 mg/ml, 48 h): preventing and inhibiting apoptosis
- cellular attachment from expression patterns (neurons) ([2]; 0.01 mg/ml, 48 h): significant inhibition of cellular attachment
- fatty acid oxidation ([2]; 0.01 mg/ml, 48 h): inhibiting fatty acid oxidation
- inhibition of glutamate production at baseline ([2]; 0.01 mg/ml, 48 h): not affected
- level of H2O2 ([2]; 0.01 mg/ml, 48 h): reduced
- number of genes differentially expressed, D0 control to the D2 LMW-DS treated samples (second statement) ([2]; 0.01 mg/ml, 48 h): 425 genes
- number of genes differentially expressed, D0 control vs D2 LMW-DS treated ([2]; 0.01 mg/ml, 48 h): 315 genes
- number of genes: abolished nutrient effect / no effect ([2]; 0.01 mg/ml, 48 h): 177
- number of genes: abolished nutrient effect / significant downregulation ([2]; 0.01 mg/ml, 48 h): 47
- number of genes: abolished nutrient effect / significant upregulation ([2]; 0.01 mg/ml, 48 h): 40
- number of genes: abolished nutrient effect / total ([2]; 0.01 mg/ml, 48 h): 264
- number of genes: enhanced response to nutrients / significant downregulation ([2]; 0.01 mg/ml, 48 h): 36
- number of genes: enhanced response to nutrients / significant upregulation ([2]; 0.01 mg/ml, 48 h): 103
- number of genes: enhanced response to nutrients / total ([2]; 0.01 mg/ml, 48 h): 139
- number of genes: new effect induced by LMW-DS / no effect ([2]; 0.01 mg/ml, 48 h): 108
- number of genes: new effect induced by LMW-DS / significant downregulation ([2]; 0.01 mg/ml, 48 h): 375
- number of genes: new effect induced by LMW-DS / significant upregulation ([2]; 0.01 mg/ml, 48 h): 71
- number of genes: new effect induced by LMW-DS / total ([2]; 0.01 mg/ml, 48 h): 554
- number of genes: not different from control / significant downregulation ([2]; 0.01 mg/ml, 48 h): 104
- number of genes: not different from control / significant upregulation ([2]; 0.01 mg/ml, 48 h): 75
- number of genes: not different from control / total ([2]; 0.01 mg/ml, 48 h): 179
- number of genes: total / no effect ([2]; 0.01 mg/ml, 48 h): 285
- number of genes: total / significant downregulation ([2]; 0.01 mg/ml, 48 h): 562
- number of genes: total / significant upregulation ([2]; 0.01 mg/ml, 48 h): 289
- number of genes: total / total ([2]; 0.01 mg/ml, 48 h): 1136
- upstream regulator AGT: activation z-score ([2]; D0 to LMW-DS treatment): 2.631
- upstream regulator AGT: predicted activation state relative D2 control ([2]; D0 to LMW-DS treatment): Activated
- upstream regulator BMP4: activation z-score ([2]; D0 to LMW-DS treatment): 0.972
- upstream regulator BMP4: predicted activation state relative D2 control ([2]; D0 to LMW-DS treatment): More activated relative to control
- upstream regulator BMP6: activation z-score ([2]; D0 to LMW-DS treatment): 0.13
- upstream regulator BMP6: predicted activation state relative D2 control ([2]; D0 to LMW-DS treatment): More activated relative to control
- upstream regulator BMP7: activation z-score ([2]; D0 to LMW-DS treatment): 1.092
- upstream regulator BMP7: predicted activation state relative D2 control ([2]; D0 to LMW-DS treatment): More activated relative to control
- upstream regulator INHA: activation z-score ([2]; D0 to LMW-DS treatment): 0.588
- upstream regulator INHA: predicted activation state relative D2 control ([2]; D0 to LMW-DS treatment): More activated relative to control
